The numbers were not newly measured in patent US6747151B2, “Azo compounds for type I phototherapy” (Mallinckrodt, Inc., priority 2001, dated 2004), which cites them from elsewhere.

For data set [1], the system named is melanoma cells. The following applies: after administration.
Data set [2] deals with tumors. The note with it: after administration.

For the compound dihydroxyindole-2-carboxylic acid, in data set [1], the “levels of melanin in melanoma cells compared to normal cells” value is listed as “substantially enhanced”.
Turning to `NCC(=O)CCC(=O)O` [delta-aminolevulinic acid], in data set [2], the “uptake of porphyrins in tumors compared to normal tissues” value was “two-fold”.
